# From BindingDB's records for patent US20230312550 (Astrazeneca, 2023)
# Molecular target: T1, Prolyl endopeptidase FAP (Homo sapiens, UniProt Q12884)
# T1 sequence (Q12884 whole entry): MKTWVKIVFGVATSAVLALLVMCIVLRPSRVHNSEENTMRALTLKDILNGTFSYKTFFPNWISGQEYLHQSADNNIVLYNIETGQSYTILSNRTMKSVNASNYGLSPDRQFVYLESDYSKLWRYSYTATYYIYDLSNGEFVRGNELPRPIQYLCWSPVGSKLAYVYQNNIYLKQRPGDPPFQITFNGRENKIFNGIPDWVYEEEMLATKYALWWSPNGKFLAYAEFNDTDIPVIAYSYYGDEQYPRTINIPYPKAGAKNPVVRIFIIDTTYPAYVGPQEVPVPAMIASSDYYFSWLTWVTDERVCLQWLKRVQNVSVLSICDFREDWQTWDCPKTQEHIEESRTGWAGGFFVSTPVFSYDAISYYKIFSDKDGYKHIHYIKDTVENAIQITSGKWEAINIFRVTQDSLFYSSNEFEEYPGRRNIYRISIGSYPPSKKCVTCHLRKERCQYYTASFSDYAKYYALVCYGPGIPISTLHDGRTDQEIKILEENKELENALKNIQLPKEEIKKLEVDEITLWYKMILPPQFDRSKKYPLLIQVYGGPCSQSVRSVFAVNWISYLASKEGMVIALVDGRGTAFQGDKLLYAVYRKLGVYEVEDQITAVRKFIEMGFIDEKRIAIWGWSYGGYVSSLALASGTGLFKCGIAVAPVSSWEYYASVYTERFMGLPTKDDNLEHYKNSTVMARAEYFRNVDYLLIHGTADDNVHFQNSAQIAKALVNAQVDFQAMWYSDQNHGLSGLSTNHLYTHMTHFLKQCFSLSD
# Experiment: hFAP Binding Assay
# Conditions: for kon: read-out: kon (M-1-s-1)
Compound,koff [s⁻¹],kon [M⁻¹ s⁻¹]
"N#C[C@@H]1CSCN1C(=O)CNC(=O)c1ccnc2ccc(N3C[C@H](F)[C@@H](F)C3)cc12 [US20230312550, Example 213]",0.00017,4.4e+06
"CC(C)C1(O)CCN(c2ccc3nccc(C(=O)NCC(=O)N4CSC[C@H]4C#N)c3c2)CC1 [US20230312550, Example 192]",1.4e-05,1.3e+06
"N#C[C@@H]1CSCN1C(=O)CNC(=O)c1ccnc2ccc(N3CC(CCF)C3)cc12 [US20230312550, Example 146]",0.00017,1.4e+06
"N#C[C@@H]1CSCN1C(=O)CNC(=O)c1ccnc2ccc(N3C[C@@H]4CC[C@H]3C4)cc12 (mixture of isomers) [US20230312550, Example 210]",9.8e-05,3.8e+06
"CCC1(O)CCN(c2ccc3nccc(C(=O)NCC(=O)N4CSC[C@H]4C#N)c3c2)CC1 [US20230312550, Example 189]",5.1e-05,2.6e+06
"N#C[C@@H]1CSCN1C(=O)CNC(=O)c1c(F)cnc2ccc(N3CCOCC3)cc12 [US20230312550, Example 2]",0.0038,410000
"Cn1nccc1-c1ccc2nccc(C(=O)NCC(=O)N3CSC[C@H]3C#N)c2c1 [US20230312550, Example 174]",0.00024,1.9e+06
"Cc1cc2nccc(C(=O)NCC(=O)N3CSC[C@H]3C#N)c2cc1N1CCOCC1 [US20230312550, Example 10]",5.6e-05,370000
"N#C[C@@H]1CSCN1C(=O)CNC(=O)c1ccnc2ccc(N3CC[C@H](F)C3)cc12 [US20230312550, Example 51]",0.00011,5.6e+06
"N#C[C@@H]1CSCN1C(=O)CNC(=O)c1ccnc2ccc(N3CC4CC(C3)O4)cc12 [US20230312550, Example 77]",6.6e-05,4.8e+06
"N#C[C@@H]1CSCN1C(=O)CNC(=O)c1ccnc2ccc(N3CC(F)C3)cc12 [US20230312550, Example 21]",0.0002,3e+06
"C[C@H]1CCN(c2ccc3nccc(C(=O)NCC(=O)N4CSC[C@H]4C#N)c3c2)C1 [US20230312550, Example 54]",0.00023,6.2e+06
"CC1(C)CN(c2ccc3nccc(C(=O)NCC(=O)N4CSC[C@H]4C#N)c3c2)CCO1 [US20230312550, Example 88]",0.00034,4.2e+06
"N#C[C@@H]1CSCN1C(=O)CNC(=O)c1ccnc2ccc(N3CC[C@@H](F)C3)cc12 [US20230312550, Example 52]",0.00019,6.8e+06
"CC1(C)Cc2c(-c3ccc4nccc(C(=O)NCC(=O)N5CSC[C@H]5C#N)c4c3)cnn2C1 [US20230312550, Example 123]",0.00042,3e+06
"N#C[C@@H]1CSCN1C(=O)CNC(=O)c1ccnc2ccc(N3CCO[C@H](C(F)(F)F)C3)cc12 [US20230312550, Example 74]",0.00016,1.1e+06
"CC(F)(F)CC1CN(c2ccc3nccc(C(=O)NCC(=O)N4CSC[C@H]4C#N)c3c2)C1 [US20230312550, Example 140]",0.00016,2.6e+06
"N#C[C@@H]1CSCN1C(=O)CNC(=O)c1ccnc2ccc(N3CCC(C(F)(F)F)CC3)cc12 [US20230312550, Example 39]",0.00016,4.9e+06
"C[C@@H]1CN(c2ccc3nccc(C(=O)NCC(=O)N4CSC[C@H]4C#N)c3c2)C[C@H](C)[C@@H]1O [US20230312550, Example 7]",7.5e-05,740000
"N#C[C@@H]1CSCN1C(=O)CNC(=O)c1ccnc2ccc(N3CC(F)(F)C3)cc12 [US20230312550, Example 23]",0.00018,2.1e+06
"CC1(O)CN(c2ccc3nccc(C(=O)NCC(=O)N4CSC[C@H]4C#N)c3c2)C1 [US20230312550, Example 165]",6.3e-05,1.2e+06
"N#C[C@@H]1CSCN1C(=O)CNC(=O)c1ccnc2ccc(N3CC(OC(F)(F)F)C3)cc12 [US20230312550, Example 132]",0.00014,270000
"N#C[C@@H]1CSCN1C(=O)CNC(=O)c1ccnc2ccc(N3CC4(COC4)C3)cc12 [US20230312550, Example 166]",4.9e-05,2.2e+06
"C[C@@H]1CCN(c2ccc3nccc(C(=O)NCC(=O)N4CSC[C@H]4C#N)c3c2)C1=O [US20230312550, Example 202]",7e-05,1.6e+06
"CCC1(C)CN(c2ccc3nccc(C(=O)NCC(=O)N4CSC[C@H]4C#N)c3c2)C1 [US20230312550, Example 137]",9.8e-05,9.5e+06

Compound,koff [s⁻¹],kon [M⁻¹ s⁻¹]
"CC1(C)CCN1c1ccc2nccc(C(=O)NCC(=O)N3CSC[C@H]3C#N)c2c1 [US20230312550, Example 20]",0.00012,4.2e+06
"COC1CN(c2ccc3nccc(C(=O)NCC(=O)N4CSC[C@H]4C#N)c3c2)C1 [US20230312550, Example 66]",0.00022,2.6e+07
"N#C[C@@H]1CSCN1C(=O)CNC(=O)c1ccnc2ccc(N3CC4(CCCC4(F)F)C3)cc12 [US20230312550, Example 141]",7.8e-05,1.4e+06
"N#C[C@@H]1CSCN1C(=O)CNC(=O)c1ccnc2ccc(N3CCCC[C@H](F)C3)cc12 [US20230312550, Example 60]",0.00017,1.7e+06
"Cc1ccn(-c2ccc3nccc(C(=O)NCC(=O)N4CSC[C@H]4C#N)c3c2)c1 [US20230312550, Example 121]",1.6e-05,1.1e+06
"COCC[C@@H]1COCCN1c1ccc2nccc(C(=O)NCC(=O)N3CSC[C@H]3C#N)c2c1 [US20230312550, Example 95]",5.6e-05,2.9e+06
"Cc1ccc(-c2ccc3nccc(C(=O)NCC(=O)N4CSC[C@H]4C#N)c3c2)cn1 [US20230312550, Example 177]",5.8e-05,100000
"COC[C@@H]1[C@@H](C)OCCN1c1ccc2nccc(C(=O)NCC(=O)N3CSC[C@H]3C#N)c2c1 [US20230312550, Example 97]",7.6e-05,690000
"CC1(C)CCN(c2ccc3nccc(C(=O)NCC(=O)N4CSC[C@H]4C#N)c3c2)CC1 [US20230312550, Example 33]",5.2e-05,1.1e+06
"CC(=O)N1CC2(C1)CN(c1ccc3nccc(C(=O)NCC(=O)N4CSC[C@H]4C#N)c3c1)C2 [US20230312550, Example 184]",1.4e-05,950000
"N#C[C@@H]1CSCN1C(=O)CNC(=O)c1ccnc2ccc(N3CC4CCCC4C3)cc12 (stereo not given in full) [US20230312550, Example 53]",5e-05,680000
"N#C[C@@H]1CSCN1C(=O)CNC(=O)c1ccnc2ccc(-c3ccc(C(F)F)nc3)cc12 [US20230312550, Example 169]",0.00096,6.2e+06
"N#C[C@@H]1CSCN1C(=O)CNC(=O)c1ccnc2ccc(N3CCCCO3)cc12 [US20230312550, Example 1]",0.00014,730000
"N#C[C@@H]1CSCN1C(=O)CNC(=O)c1ccnc2ccc(N3CCC[C@H]3C3CC3)cc12 [US20230312550, Example 200]",0.00023,2.5e+06
"CC1(C)CN(c2ccc3nccc(C(=O)NCC(=O)N4CSC[C@H]4C#N)c3c2)CCC1(F)F [US20230312550, Example 38]",7.8e-05,520000
"CC1(CC(F)F)CN(c2ccc3nccc(C(=O)NCC(=O)N4CSC[C@H]4C#N)c3c2)C1 [US20230312550, Example 133]",7.3e-05,1.2e+06
"CC1(C)OCCN(c2ccc3nccc(C(=O)NCC(=O)N4CSC[C@H]4C#N)c3c2)C1=O [US20230312550, Example 16]",4.1e-05,740000
"CC1(C)CCN(c2ccc3nccc(C(=O)NCC(=O)N4CSC[C@H]4C#N)c3c2)C1=O [US20230312550, Example 12]",6.4e-05,1.9e+06
"N#C[C@@H]1CSCN1C(=O)CNC(=O)c1ccnc2ccc(N3CC(CC(F)(F)F)C3)cc12 [US20230312550, Example 158]",0.00029,3.1e+06
"N#C[C@@H]1CSCN1C(=O)CNC(=O)c1ccnc2cc(Cl)c(N3CCOCC3)cc12 [US20230312550, Example 179]",0.00016,3.2e+06
"CC(C)C1CN(c2ccc3nccc(C(=O)NCC(=O)N4CSC[C@H]4C#N)c3c2)C1 [US20230312550, Example 148]",0.0002,6.6e+06
"N#C[C@@H]1CSCN1C(=O)CNC(=O)c1ccnc2ccc(N3CC(F)(CF)C3)cc12 [US20230312550, Example 157]",0.00012,1.9e+06
"N#C[C@@H]1CSCN1C(=O)CNC(=O)c1ccnc2ccc(N3CC(CF)C3)cc12 [US20230312550, Example 113]",4.5e-05,1.5e+06
"COC[C@@H]1CCCN1c1ccc2nccc(C(=O)NCC(=O)N3CSC[C@H]3C#N)c2c1 [US20230312550, Example 212]",0.00034,3.3e+06
"N#C[C@@H]1CSCN1C(=O)CNC(=O)c1ccnc2ccc(N3CC(C4CC4)C3)cc12 [US20230312550, Example 145]",0.00013,4.5e+06
